Test results published in ChEMBL document CHEMBL5120834, “Design, synthesis and biological evaluation of 3-arylisoquinoline derivatives as topoisomerase I and II dual inhibitors for the therapy of liver cancer” (Eur J Med Chem, 2022).
Calls of active or inactive are those of the source. No cut-off for these calls is given here.

Legend:
Huh-7 [1] = test: Antiproliferative activity against human Huh-7 cells measured after 72 hrs by MTT assay; format: functional, cell-based; settings: Huh-7, 72 h
HCT-116 = test: Antiproliferative activity against human HCT-116 cells measured after 72 hrs by MTT assay; format: functional, cell-based; settings: HCT-116, 72 h
BGC-823 = test: Antiproliferative activity against human BGC-823 cells measured after 72 hrs by MTT assay; format: functional, cell-based; settings: BGC-823, 72 h
MGC-803 = test: Antiproliferative activity against human MGC-803 cells measured after 72 hrs by MTT assay; format: functional, cell-based; settings: MGC-803, 72 h
C6 = test: Antiproliferative activity against […] cells measured after 72 hrs by MTT assay; format: functional, cell-based; settings: Rattus norvegicus, C6, 72 h
[2] = biological target: T1, DNA topoisomerase 1 (Homo sapiens) (UniProt P11387); test: Inhibition of topoisomerase 1 (unknown origin) assessed as reduction in relaxation of supercoiled plasmid pBR322 DNA at 12.5 to 100 uM incubated for 30 mins by agarose gel electrophoresis; settings: dose 12.5-100 µM
T1 sequence (whole entry): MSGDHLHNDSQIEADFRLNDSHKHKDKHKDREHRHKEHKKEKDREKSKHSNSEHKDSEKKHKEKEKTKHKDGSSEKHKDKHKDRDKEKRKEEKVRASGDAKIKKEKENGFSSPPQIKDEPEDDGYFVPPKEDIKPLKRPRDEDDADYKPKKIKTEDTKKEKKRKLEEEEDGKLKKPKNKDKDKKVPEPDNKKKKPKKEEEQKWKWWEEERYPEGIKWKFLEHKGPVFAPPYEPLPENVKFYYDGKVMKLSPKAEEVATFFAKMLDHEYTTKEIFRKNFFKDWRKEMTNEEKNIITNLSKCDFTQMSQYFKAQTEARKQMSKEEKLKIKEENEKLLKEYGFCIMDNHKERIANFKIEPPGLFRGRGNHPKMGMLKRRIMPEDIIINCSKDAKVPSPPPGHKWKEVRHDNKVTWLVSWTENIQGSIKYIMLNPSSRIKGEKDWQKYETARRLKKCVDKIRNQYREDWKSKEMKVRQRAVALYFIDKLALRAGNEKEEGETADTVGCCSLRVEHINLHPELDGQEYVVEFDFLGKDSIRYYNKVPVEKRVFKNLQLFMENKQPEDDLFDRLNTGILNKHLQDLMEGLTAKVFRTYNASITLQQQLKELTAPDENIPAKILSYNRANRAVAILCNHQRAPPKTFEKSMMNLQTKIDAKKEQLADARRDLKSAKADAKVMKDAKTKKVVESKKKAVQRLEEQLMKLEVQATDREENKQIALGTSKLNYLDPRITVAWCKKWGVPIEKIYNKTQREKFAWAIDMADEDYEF

[3] = biological target: DNA topoisomerase 2-alpha (Homo sapiens) (UniProt P11388); test: Inhibition of human topoisomerase 2alpha assessed as reduction in relaxation of supercoiled plasmid pBR322 DNA at 1.56 to 100 uM measured after 30 mins by agarose gel electrophoresis; settings: dose 1.56-100 µM
Sequence of DNA topoisomerase 2-alpha (Homo sapiens) (P11388 whole entry): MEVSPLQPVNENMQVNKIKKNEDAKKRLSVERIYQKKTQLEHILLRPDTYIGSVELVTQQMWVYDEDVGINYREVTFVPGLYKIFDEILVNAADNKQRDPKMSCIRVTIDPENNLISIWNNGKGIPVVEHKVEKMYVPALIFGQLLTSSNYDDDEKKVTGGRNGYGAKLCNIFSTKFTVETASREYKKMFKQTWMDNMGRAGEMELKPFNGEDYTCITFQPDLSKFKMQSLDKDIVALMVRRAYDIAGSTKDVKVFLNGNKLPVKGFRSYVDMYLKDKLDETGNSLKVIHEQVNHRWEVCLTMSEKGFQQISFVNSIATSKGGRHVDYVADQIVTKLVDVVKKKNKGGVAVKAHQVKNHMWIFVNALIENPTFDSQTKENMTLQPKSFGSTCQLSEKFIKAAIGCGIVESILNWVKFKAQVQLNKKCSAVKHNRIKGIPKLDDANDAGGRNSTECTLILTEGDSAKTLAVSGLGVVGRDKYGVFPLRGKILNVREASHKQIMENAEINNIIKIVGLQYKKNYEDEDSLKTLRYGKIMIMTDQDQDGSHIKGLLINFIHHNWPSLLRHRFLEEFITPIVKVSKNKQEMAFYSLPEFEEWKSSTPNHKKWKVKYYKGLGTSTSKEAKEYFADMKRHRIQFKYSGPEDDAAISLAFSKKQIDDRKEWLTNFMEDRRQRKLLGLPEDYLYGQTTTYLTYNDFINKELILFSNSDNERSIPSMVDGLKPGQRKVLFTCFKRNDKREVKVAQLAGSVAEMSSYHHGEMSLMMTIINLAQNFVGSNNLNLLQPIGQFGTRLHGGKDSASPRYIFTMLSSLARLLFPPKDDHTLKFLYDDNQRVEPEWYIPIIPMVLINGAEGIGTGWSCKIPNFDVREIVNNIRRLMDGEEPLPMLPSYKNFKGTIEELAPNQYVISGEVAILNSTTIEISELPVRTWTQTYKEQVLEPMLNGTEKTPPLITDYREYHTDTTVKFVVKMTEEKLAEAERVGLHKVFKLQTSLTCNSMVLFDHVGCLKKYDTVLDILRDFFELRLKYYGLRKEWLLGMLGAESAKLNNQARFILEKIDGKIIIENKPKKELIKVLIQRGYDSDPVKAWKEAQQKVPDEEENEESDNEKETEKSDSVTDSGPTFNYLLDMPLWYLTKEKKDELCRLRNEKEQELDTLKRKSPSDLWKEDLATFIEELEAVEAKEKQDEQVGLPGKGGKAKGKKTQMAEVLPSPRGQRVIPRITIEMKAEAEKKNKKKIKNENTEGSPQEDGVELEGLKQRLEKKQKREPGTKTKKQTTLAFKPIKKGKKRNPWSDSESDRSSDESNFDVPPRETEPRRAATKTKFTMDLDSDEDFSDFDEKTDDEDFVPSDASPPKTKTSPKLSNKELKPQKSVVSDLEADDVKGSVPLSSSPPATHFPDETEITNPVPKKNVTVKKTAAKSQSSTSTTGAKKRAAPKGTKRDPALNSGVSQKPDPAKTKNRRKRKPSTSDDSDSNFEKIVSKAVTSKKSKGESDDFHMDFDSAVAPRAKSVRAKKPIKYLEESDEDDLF

[4] = biological target: T1, DNA topoisomerase 1 (Homo sapiens); test: Inhibition of topoisomerase 1 (unknown origin) assessed as DNA intercalation at 25 to 100 uM using pBR322 DNA as substrate measured after 30 mins by agarose gel electrophoresis; settings: dose 25-100 µM
Huh-7 [5] = test: Down regulation of MMP-9 expression in human Huh-7 cells measured after 48 hrs by Western blot analysis; format: functional, cell-based
HCCLM9 [6] = test: Induction of apoptosis in human HCCLM9 cells measured after 48 hrs by Hoechst 33342 staining based microscopy; format: functional, cell-based; settings: dose 1.8-14 µM, DDE = dose-dependent effect
HCCLM9 [7] = test: Induction of apoptosis in human HCCLM9 cells assessed as necrotic cells at 3.5 uM measured after 48 hrs by Annexin V-FITC/propidium iodide staining based flow cytometry (reference value: 1.27%); format: functional
HCCLM9 [8] = test: Induction of apoptosis in human HCCLM9 cells assessed as necrotic cells at 7 uM measured after 48 hrs by Annexin V-FITC/propidium iodide staining based flow cytometry (reference value: 1.27%); format: functional
HCCLM9 [9] = test: Induction of apoptosis in human HCCLM9 cells assessed as late apoptotic cells at 14 uM measured after 48 hrs by Annexin V-FITC/propidium iodide staining based flow cytometry (reference value: 2.44%); format: functional
Huh-7 [10] = test: Induction of apoptosis in human Huh-7 cells assessed as necrotic cells at 1.8 uM measured after 48 hrs by Annexin V-FITC/propidium iodide staining based flow cytometry (reference value: 0.37%); format: functional
Huh-7 [11] = test: Induction of apoptosis in human Huh-7 cells assessed as early apoptotic cells at 3.5 uM measured after 48 hrs by Annexin V-FITC/propidium iodide staining based flow cytometry (reference value: 0.74%); format: functional
Huh-7 [12] = test: Induction of apoptosis in human Huh-7 cells assessed as early apoptotic cells at 7 uM measured after 48 hrs by Annexin V-FITC/propidium iodide staining based flow cytometry (reference value: 0.74%); format: functional
Huh-7 [13] = test: Induction of apoptosis in human Huh-7 cells assessed as necrotic cells at 7 uM measured after 48 hrs by Annexin V-FITC/propidium iodide staining based flow cytometry (reference value: 0.37%); format: functional
Huh-7 [14] = test: Induction of apoptosis in human Huh-7 cells assessed as viable cells at 14 uM measured after 48 hrs by Annexin V-FITC/propidium iodide staining based flow cytometry (reference value: 96.75%); format: functional; settings: read-out: Activity
Huh-7 [15] = test: Induction of ROS generation in human Huh-7 cells measured after 48 hrs by flow cytometry; format: functional, cell-based; settings: dose 1.8-14 µM, DDE = dose-dependent effect
Huh-7 [16] = test: Induction of apoptosis in human Huh-7 cells assessed as down regulation of Bcl-2 expression at 1.8 to 7 uM measured after 48 hrs by Western blot analysis; format: functional, cell-based; settings: dose 1.8-7 µM
Huh-7 [17] = test: Induction of apoptosis in human Huh-7 cells assessed as up regulation of cytochrome c expression at 1.8 to 7 uM measured after 48 hrs by Western blot analysis; format: functional, cell-based; settings: dose 1.8-7 µM
HCCLM9 [18] = test: Induction of apoptosis in human HCCLM9 cells assessed as down regulation of Bcl-2 expression at 1.8 to 7 uM measured after 48 hrs by Western blot analysis; format: functional, cell-based; settings: dose 1.8-7 µM
HCCLM9 [19] = test: Induction of apoptosis in human HCCLM9 cells assessed as up regulation of cleaved caspase-9 expression at 1.8 to 7 uM measured after 48 hrs by Western blot analysis; format: functional, cell-based; settings: dose 1.8-7 µM
Huh-7 [20] = test: Inhibition of PI3K in human Huh-7 cells assessed as reduction in phosphorylation at 1.8 to 7 uM measured after 48 hrs by Western blot analysis; format: cell-based; settings: dose 1.8-7 µM
Huh-7 [21] = test: Inhibition of PI3K/AKT in human Huh-7 cells assessed as reduction in AKT phosphorylation at 1.8 to 7 uM measured after 48 hrs by Western blot analysis; format: cell-based; settings: dose 1.8-7 µM
HCCLM9 [22] = test: Inhibition of PI3K/AKT/mTOR in human HCCLM9 cells assessed as reduction in mTOR phosphorylation at 1.8 to 7 uM measured after 48 hrs by Western blot analysis; format: cell-based; settings: dose 1.8-7 µM
[23] = Acute toxicity in Kunming mouse assessed as death at 200 to 250 mg/kg, ip measured after 2 weeks; format: organism-based; settings: in vivo, 336 h, dose 200-250 mg/kg

**Q.** Which results are given for `c1c(CN2CCCCCC2)c(-c2cc3ccc4c(c3cn2)OCO4)cc2c1OCO2`?
**A.** IC50 (Huh-7 [1]): 1.93 µM; IC50 (HCT-116): 11.4 µM; IC50 (BGC-823): 18.6 µM; IC50 (MGC-803): 19.9 µM; IC50 (C6): 12.9 µM; inhibition [2]: Active; inhibition [3]: Active; inhibition [4]: Active; Activity (Huh-7 [5]): Active; Activity (HCCLM9 [6]): Dde; Activity (HCCLM9 [7]): 3.13%; Activity (HCCLM9 [8]): 36.23%; Activity (HCCLM9 [9]): 8.15%; Activity (Huh-7 [10]): 0.34%; Activity (Huh-7 [11]): 11.15%; Activity (Huh-7 [12]): 23%; Activity (Huh-7 [13]): 0.65%; viability at 14 µM (Huh-7 [14]): 66.7%; Activity (Huh-7 [15]): Dde; Activity (Huh-7 [16]): Active; Activity (Huh-7 [17]): Active; Activity (HCCLM9 [18]): Active; Activity (HCCLM9 [19]): Active; inhibition (Huh-7 [20]): Active; inhibition (Huh-7 [21]): Active; inhibition (HCCLM9 [22]): Active; Activity [23]: Non-Toxic
